Measured values from patent US11512087B2, “BRK inhibitory compound” (priority 2015, dated 2022).

Assays:
Lck = Lck (Homo sapiens (Human), UniProt P06239); assay: Lck inhibitory activity (Z'-LYTE Kinase Assay Kit-Tyr 2 Peptide, FRET); format: biochemical
Experimental: The Lck activity was determined by using Fluorescence Resonance Energy Transfer (FRET) method.
A dilute solution (5 μL) of the compound of the present invention in dimethylsulfoxide (DMSO; Sigma-Aldrich Co. LLC) was added to a 96-well assay plate. In addition, Peptide/Kinase Buffer composed of DL-dithiothreitol (DTT; 2 mM), Tyr 2 Peptide (2 μM), Kinase Buffer and Lck was added to the assay plate, and the reaction solution was preincubated at 25° C. for 20 minutes. […] After incubation, Coloring Solution A (10 μL) composed of Coloring Reagent B and Coloring Buffer was added, and the reaction solution was incubated at 25° C. for 1 hour. Stop Reagent (10 μL) was added to each well such that the enzymatic reaction stopped. The fluorescent coloring of each well was measured on a fluorescent plate reader by using wavelengths of 445 nm and 520 nm. The ratio of phosphorylation was determined by a ratio of coloring at 445 nm to that at 520 nm according to the attached manual.
The inhibition rate (%) of the compound of the present invention was calculated according to the following Numerical Formula 2. Inhibition rate (%)={1−(AX−AB)/(AC−AB)}×100 [Numerical Formula 2]
AX: Ratio of phosphorylation at addition of the compound of the present invention
AB: Ratio of phosphorylation in blank
AC: Ratio of phosphorylation at addition of only DMSO

Syk kinase = Syk kinase (Homo sapiens (Human), UniProt P43405); assay: Syk inhibitory activity (mobility shift, QuickScout Screening Assist MSA); format: biochemical; conditions: read-out: Syk inhibitory activity (Inhibition rate at 1 μM of compound)
Experimental: The compound of the present invention was dissolved in DMSO to prepare a solution with a concentration of 100 times the test concentration of 1 μmol/L. The solution was further diluted 25-fold with Assay Buffer (20 mmol/L HEPES, 0.01% Triton X-100, 2 mmol/L DTT, pH 7.5) to give a test substance solution. With regard to a positive control substance (Staurosporine), a solution of the positive control substance was prepared in a similar manner.
Five microliters of a test substance solution with a concentration of four times prepared by using Assay Buffer, 5 μL of a solution of a substrate (Blk/Lyntide)/ATP/a metal (Mg) with a concentration of four times and 10 μL of a solution of Syk kinase with a concentration of two times were mixed in a well of a 384-well plate made of polypropylene, and the mixture was subjected to a reaction at room temperature for 1 hour (the final concentration of the substrate was 1,000 nmol/L, and the final concentration of ATP was 26 μmol/L). To the mixture, 60 μL of Termination Buffer (QuickScout Screening Assist MSA; Carna Biosciences, Inc.) was added to stop the reaction. The substrate peptide and the phosphorylated peptide in the reaction solution were separated, and were quantified. The kinase reaction was evaluated by a product ratio (P/(P+S)) calculated from a peak height (S) of the substrate peptide and a peak height (P) of the phosphorylated peptide.

Lck, sequence (P06239 whole entry, species assumed): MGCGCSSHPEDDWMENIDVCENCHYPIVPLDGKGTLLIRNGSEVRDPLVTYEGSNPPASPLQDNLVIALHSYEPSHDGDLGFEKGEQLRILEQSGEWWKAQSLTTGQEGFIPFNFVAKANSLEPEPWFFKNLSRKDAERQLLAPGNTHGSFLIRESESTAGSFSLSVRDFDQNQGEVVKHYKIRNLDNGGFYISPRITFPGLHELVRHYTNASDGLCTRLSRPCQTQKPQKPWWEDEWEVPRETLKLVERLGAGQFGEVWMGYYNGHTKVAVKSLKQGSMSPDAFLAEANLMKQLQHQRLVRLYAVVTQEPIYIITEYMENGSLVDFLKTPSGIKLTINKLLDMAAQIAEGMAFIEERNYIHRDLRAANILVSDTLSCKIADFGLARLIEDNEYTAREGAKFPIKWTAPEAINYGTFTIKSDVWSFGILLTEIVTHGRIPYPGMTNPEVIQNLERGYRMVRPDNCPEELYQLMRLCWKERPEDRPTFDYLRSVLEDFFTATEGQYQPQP

SMILES	IC50 (Lck)	inhibition at 1 µM (Syk kinase)
CC(C)n1nc(-c2ccc(F)c3[nH]ncc23)c2c(N)nc(Nc3ccc(S(C)(=O)=O)cc3F)nc21 [Example 4-3, 3-(7-Fluoro-1H-indazol-4-yl)-N^6-[2-fluoro-4-(methylsulfonyl)phenyl]-1-isopropyl-1H-pyrazolo[3,4-d]pyrimidine-4,6-diamine]	2.5 µM	0%
Cc1nn(C)cc1Nc1nc(N)c2c(-c3ccc4[nH]ccc4c3)nn(C(C)C)c2n1 [Example 1, N^6-(1,3-dimethyl-1H-pyrazol-4-yl)-3-(1H-indol-5-yl)-1-isopropyl-1H-pyrazolo[3,4-d]pyrimidine-4,6-diamine]	> 10 µM	0%
CC(C)n1cc(-c2ccc(C#N)c3[nH]ncc23)c2c(N)nc(Nc3ccc(S(C)(=O)=O)cc3F)nc21 [Example 13-1, 4-(4-Amino-2-{[2-fluoro-4-(methylsulfonyl)phenyl]amino}-7-isopropyl-7H-pyrrolo[2,3-d]pyrimidin-5-yl)-1H-indazole-7-carbonitrile]	> 10 µM	0%
